Here are results for 12 compounds from article PMC4605843, “Cell-Penetrating Peptides Selectively Cross the Blood-Brain Barrier In Vivo” (PLoS ONE, 2015).

Data set [1] relates to brain. Particulars: cited from earlier work; for Kin: rat, in vivo.
In data set [2] the test system is brain. Particulars: cited from earlier work.
Data set [3] deals with brain. Particulars: mouse, in vivo; cited from earlier work.
Data set [4] deals with blood-brain barrier (BBB). Briefly: Regional variation in brain influx (MTR, dissected brain regions). As for the experimental part: The protocol of the multiple time regression (MTR) analysis to evaluate whether the peptides cross the BBB is described in detail elsewhere. […] Dermorphin and radioiodinated BSA were used as positive and negative control, respectively. […] The exposure time is calculated as the integral of the arterial serum radioactivity over time divided by the radioactivity at time t. The integral is calculated through the trapezoidal rule of the log-transformed data. In the linear part of the curve, assuming a two-compartmental BBB model, data can be fitted using a linear model from which the unidirectional influx rate (Kin), also referred to as unidirectional blood to brain clearance K1 [46], and the initial brain distribution volume (Vi) can be determined using the following equation according to Gjedde and Patlak: Am(T)/Cp(T)=Abrain(T)/Aserum(T)=Kin⋅Θ+Vi with Θ = ∫0TCp(t) ⋅ dt/Cp(T) (1)
Different dissected brain regions were weighed and measured in the gamma counter. The unidirectional influx and initial distribution volume of the iodinated peptides for the different brain regions are determined using Eq 1.
Generally, regression lines were computed using the least squares method. Regression lines of the ratio of the brain-to-serum radioactivity versus the exposure time obtained during the evaluation of the regional brain distribution and the used brain influx mechanism, were statistically compared using the Prism 6 software (GraphPad, La Jolla, USA).

The subject of data set [5] is blood-brain barrier (BBB). Put plainly: Multiple time regression (MTR) analysis, blood-to-brain influx. Type of data set: in vivo, ICR-CD-1 mice.
Experimental: Shortly, 200 μl of the radioiodinated CPP solution (30000 cpm/μl) was injected into the right jugular externalis vein of anesthetized ICR-CD-1 mice, which were then decapitated at 1, 3, 5, 10, 12.5 and 15 min post injection, with first and last time points performed in duplicate, after which brains were collected and measured for radioactivity using a gamma counter (Wallac Wizard 1470, Perkin Elmer). Shortly before decapitation, blood was collected from the left carotid artery, which was centrifuged (10000 g, 15 min at 21°C) in order to measure the radioactivity of blood and serum. Dermorphin and radioiodinated BSA were used as positive and negative control, respectively. The blood-to-brain entry during the experimental period of 15 min was evaluated by plotting the ratio of brain (Am(T)) and serum activity (Cp(T)), corrected for the brain weight and serum volume, respectively, versus the exposure time (Θ), expressing the theoretical steady state serum level of the iodinated peptide at a given serum concentration [37, 73]. The exposure time is calculated as the integral of the arterial serum radioactivity over time divided by the radioactivity at time t. The integral is calculated through the trapezoidal rule of the log-transformed data [73]. In the linear part of the curve, assuming a two-compartmental BBB model, data can be fitted using a linear model from which the unidirectional influx rate (Kin), also referred to as unidirectional blood to brain clearance K1 [46], and the initial brain distribution volume (Vi) can be determined using the following equation according to Gjedde and Patlak [37–40]: Am(T)/Cp(T)=Abrain(T)/Aserum(T)=Kin⋅Θ+Vi with Θ = ∫0TCp(t) ⋅ dt/Cp(T) (1)
For data set [6] the following is noted: 15 min post IV injection of radiolabeled peptide, % injected dose, n = 2, ICR-CD-1 mice; described in words.
Data set [7] has as its system blood-brain barrier (BBB). Put plainly: Brain-to-blood transport (efflux) after intracerebroventricular injection. Particulars: mouse; for t1/2,brain (half-time disappearance): in vivo. The protocol: Female, ICR-CD-1 mice (Harlan Laboratories, Venray, The Netherlands), aged 7 to 10 weeks and weighing 28–36 g, were used during the in vivo BBB transport experiments. All animal experiments were performed in accordance with the Ethical Committee principles of laboratory animal welfare. The protocol was approved by the Ethical Committee of the Faculty of Veterinary Science of Ghent University (Permit Numbers: 2009–052 and 2014–128). Prior to experiments, mice were anesthetized by intraperitoneal injection of a 40% urethane solution (3 g/kg) (Sigma-Aldrich, Diegem, Belgium).
For evaluation of the efflux of the peptides out of the brain, 1 μl of a radioiodinated peptide solution (25000 cpm/μl) was injected in the lateral ventricle of anesthetized ICR-CD-1 mice at a speed of 360 μl/h for 10 s using a syringe pump (KDS100, KR analytical, Cheshire, UK). […] The brain half-time disappearance (t1/2,brain) was calculated from the linear regression of the natural logarithm of the residual radioactivity in brain versus time as follows: t1/2,brain=ln(2)/kout (5) with kout defined as the efflux rate constant calculated as the absolute value of the slope of the linear regression, applying first order kinetics. An extensive description of the protocol can be found elsewhere.

The test system of data set [8] is blood-brain barrier (BBB). Put plainly: Saturability of brain influx: MTR with and without excess unlabeled peptide. Also on record: species or system ICR-CD-1 mice. To be noted: mouse, in vivo, iv. As for the experimental part: This dose of 20 μg was determined based on the amount of peptide injected during a MTR experiment estimated based on the specific activity and taking into account the amount of non-radioactively iodinated peptide present in the injected dose. […] During this experiment, peptides are radiolabeled using a no-carrier added method in order that only radioactively labeled peptide was injected.

In data set [9] the test system is brain parenchyma and capillaries. Briefly: Capillary depletion method: brain parenchyma/capillary distribution. Particulars: mouse, in vivo, iv. In kind it is in vivo, ICR-CD-1 mice. As for the experimental part: The capillary depletion method was used to evaluate the distribution of the peptide between the brain parenchyma and capillaries. In summary (see Materials and Methods in [45]), 200 μl of a radiolabeled peptide solution (10000 cpm/μl) was injected in the jugular externalis vein of two anesthetized ICR-CD-1 mice. Ten minutes after IV injection, mice were decapitated and brains were collected and measured for radioactivity. […] The resulting homogenate was weighed and centrifuged at 5400 g for 30 min at 4°C, resulting in a pellet, i.e. capillaries, and supernatant, i.e. parenchyma and fat tissue, which were weighed and measured in the gamma counter. […] Compartmental distribution was calculated as follows: Fractioncapillaries or parenchyma (%)=[…] or parenchyma/[…]×100 (4)

The next data set deals with cellular uptake. Also on record: method as in Stalmans et al.[1]. To be noted: cell-penetrating (CP-) response, quantitative expression of cellular influx; ref Stalmans et al.[1]; cited from earlier work.
Data set [10] deals with blood-brain barrier (BBB). Put plainly: Classification of peptides according to their BBB influx. An excerpt:
This peptide is derived from the murine vascular endothelial (VE)-cadherin, located in the adherens junctions between the vascular endothelial cells, and constitutes the 13 cytosolic amino acids closest to the membrane and five amino acids from the C-terminus of the transmembrane region (615–632).

Another data set has as its system BBB. Particulars: after i.p. injection, fluorimetry; ref [41] of S1 Table; cited from earlier work. The source says:
page 6: Supplementary Information S1 Table.

The conditions of data set [11]: activity of the 68Ga-DOTA labeled peptide; ref [49]; cited from earlier work. The source says:
For pVEC and Tat 47–57, a very high liver concentration was observed compared to the other tissues, which can indicate metabolization, but also uptake of the peptides and their metabolites in hepatocytes.

[12] abbreviates: 125I-radioiodinated, IV, ICR-CD-1 mice, MTR 1-15 min, ± 65% confidence limits.

Read-outs that look alike come from different tables or passages of the source. Ends that are not written are not given here. Some results are limits rather than exact numbers.

As for `CC1(C)S[C@@H]2[C@H](NC(=O)Cc3ccccc3)C(=O)N2[C@H]1C(=O)O` [Benzylpenicillin], the Kin in the data set with brain [1] is 0.15 µL/s/g.

Turning to `COc1cccc2c1C(=O)c1c(O)c3c(c(O)c1C2=O)C[C@@](O)(C(=O)CO)C[C@@H]3O[C@H]1C[C@H](N)[C@H](O)[C@H](C)O1` [Doxorubicin], the Vd in the data set with brain [2] (mouse, in vivo) was < 100 µL/g. Further, the Kin in the data set on brain [1] is 0.25 µL/s/g.

Take `CN1CC[C@]23c4c5ccc(O)c4O[C@H]2[C@@H](O[C@@H]2O[C@H](C(=O)O)[C@@H](O)[C@H](O)[C@H]2O)C=C[C@H]3[C@H]1C5` [Morphine-6-glucuronide]: the Kin with brain [2] (in situ brain perfusion in mice, ref [6] of S1 Table) is 0.024 µL/s/g.

As to `CC(C)c1nc(CN(C)C(=O)N[C@H](C(=O)N[C@@H](Cc2ccccc2)C[C@H](O)[C@H](Cc2ccccc2)NC(=O)OCc2cncs2)C(C)C)cs1` [Ritonavir], the Brain drug level with brain [3] is 0.1 µg/g.

In the case of Dalargin, in the data set on brain [1] (in situ brain perfusion (single time) in rats, ref [2] of S1 Table), the Vd was 16.7 µL/g.

For Dermorphin [reference compound], the “Difference in brain influx rates between the eight dissected brain regions” value (“Difference” for short) in [4] (comparison of slopes (Kin), Prism 6, P threshold 0.05, ICR-CD-1 mice) was “no statistically significant difference”. In addition, the “Kin (unidirectional influx rate), linear Gjedde-Patlak model” value (shortened to “Kin (unidirectional influx rate)”) in [5] (125I-radioiodinated peptide, IV jugular vein 200 μl (30000 cpm/μl), anesthetized female ICR-CD-1 mice, 1-15 min, brain/serum radioactivity (gamma counter) vs exposure time, whole brain, ± 65% confidence limits, pVEC, SynB3, TP10: two experiments fitted together) amounted to 0.63 ± 0.10 µL/g/min. Further, the “Vi (initial brain distribution volume), linear Gjedde-Patlak model” value in data set [5] (125I-radioiodinated, IV, ICR-CD-1 mice, MTR 1-15 min, whole brain, ± 65% confidence limits) was 13.98 ± 0.79 µL/g. In addition, in data set [5] (setting [12]), the “K1 (unidirectional clearance, slope of the initial phase), biphasic model” value is 2.54 ± 0.50 µL/g/min; the “K (net clearance, slope of the plateau phase), biphasic model” value stood at 0.03 ± 0.06 µL/g/min; the “Vg (tissue brain distribution volume), biphasic model” value came to 13.72 ± 2.17 µL/g. The Relative tissue distribution entry in data set [6] is listed as “high liver distributions”.

Consider “LLIILRRRIRKQAHAHSK-NH2 [pVEC, cell-penetrating peptide derived from murine VE-cadherin (615–632); tested radioiodinated]”, for which, in data set [7], the “kout (efflux transfer constant)” value worked out at 0.10 ± 0.11 min⁻¹. Besides, the “Vi with excess dose of unlabeled peptide” value in data set [8] stood at 1 µL/g. Besides, in data set [9], the Parenchymal fraction was 80%. Moreover, the CP-response in the data set with cellular uptake is reported as 1.318. Moreover, the BBB influx class result in [10] was “class 5”. In addition, in [4] (mouse, in vivo), the “Difference” value is listed as “significantly differed”. For the same compound, in data set [4] (mouse, in vivo, iv), the “Kin, cerebellum” value was 5.61 [5.12, 6.10] μl/(g × min); the “Kin, frontal cortex” value was 4.84 [4.66, 5.02] μl/(g × min); the “Kin, hippocampus” value is 3.94 [3.51, 4.37] μl/(g × min); the “Kin, midbrain” value was 5.32 [5.17, 5.46] μl/(g × min). In addition, in [4] (mouse, in vivo, iv), the “Kin, occipital and parietal cortex” value is 5.03 [4.73, 5.32] μl/(g × min); the “Kin, pons medulla” value was 4.51 [3.87, 5.15] μl/(g × min); the “Kin, striatum” value is 4.07 [3.77, 4.37] μl/(g × min); the “Kin, thalamus and hypothalamus” value is 4.12 [3.86, 4.38] μl/(g × min). For the same compound, in data set [4] (mouse, in vivo, iv), the “Kin, whole brain” value is 6.04 [5.78, 6.30] μl/(g × min); the “Vi, cerebellum” value is 21.02 [15.09, 26.95] μl/g; the “Vi, frontal cortex” value is 12.93 [10.77, 15.09] μl/g; the “Vi, hippocampus” value is 9.33 [4.13, 14.54] μl/g. In [4] (mouse, in vivo, iv), the “Vi, midbrain” value was 13.88 [12.15, 15.62] μl/g; the “Vi, occipital and parietal cortex” value is 16.61 [13.02, 20.19] μl/g; the “Vi, pons medulla” value is 36.06 [28.34, 43.78] μl/g; the “Vi, striatum” value was 11.47 [7.81, 15.13] μl/g. Moreover, in data set [4] (mouse, in vivo, iv), the “Vi, thalamus and hypothalamus” value is 17.72 [11.58, 17.86] μl/g; the “Vi, whole brain” value is 24.37 [21.23, 27.51] μl/g. In data set [5] (mouse, in vivo, iv), the “Kin (unidirectional influx rate)” value came out at 6.02 ± 0.29 µL/g/min and the “Maximal ratio of brain-to-serum radioactivity” value is on record as “about 180 μl/g”.

Consider “RRLSYSRRRF-NH2 [SynB3, short cationic cell-penetrating peptide]”, for which, in data set [7], the “kout (efflux transfer constant)” value turned out to be 0.05 ± 0.01 min⁻¹ and the “t1/2,brain (half-time disappearance)” value is recorded as 15 min. In data set [9], this compound registered a Parenchymal fraction of 77%. Moreover, the CP-response in the data set on cellular uptake was 0.126. For the same compound, the BBB influx class entry in data set [10] is “class 5”. Besides, the “Difference” value in [4] (mouse, in vivo) is “no statistically significant difference”. For the same compound, in data set [5] (mouse, in vivo, iv), the “K1 (unidirectional clearance, slope of the initial phase), biphasic model” value was 29.84 ± 8.42 µL/g/min; the “Kin (unidirectional influx rate)” value worked out at 5.63 ± 1.83 µL/g/min; the “Maximal ratio of brain-to-serum radioactivity” value was “about 70 μl/g”.

On to TP10, for which, in the data set on cellular uptake, the CP-response was 1.641.

Take VIP: cargo peptide VIP alone: the Brain uptake efficiency with BBB was 0.78.

In the case of “YGRKKRRQRRR-NH2 [Tat 47–57, short cationic cell-penetrating peptide]”, in [7], the “kout (efflux transfer constant)” value turned out to be 0.21 ± 0.08 min⁻¹ and the “t1/2,brain (half-time disappearance)” value amounted to 3 min. Besides, in data set [9], the Parenchymal fraction came to 79%. For the same compound, in the data set on cellular uptake, the CP-response is recorded as 0.309. Also, the BBB influx class entry in data set [10] is given as “class 5”. In addition, in [5] (setting [12]), the “K1 (unidirectional clearance, slope of the initial phase), biphasic model” value was determined as 13.50 ± 3.88 µL/g/min. Besides, in [5] (mouse, in vivo, iv), the “K (net clearance, slope of the plateau phase), biphasic model” value worked out at 0.27 ± 0.46 µL/g/min and the “Kin (unidirectional influx rate)” value worked out at 4.73 ± 1.23 µL/g/min.

With “^68Ga-DOTA labeled pVEC: 68Ga-DOTA labeled pVEC of a literature study (TLLIILRRRIRKQAHAHS; also: 68Ga-DOTA label (site not given here); UniProt P55284 615-632, looked up, fragment)”, in [11], the “(human) serum half-life” value is listed as “a few hours”.
